The supplement of paper PMC13380429

How the values were obtained:
Settings in all cases: 72 h
Caco-2 [1] = assay: cell viability relative to DMSO; higher = less toxic
Calu-3 [2] = assay: as above
U2OS [3] = assay: as above
Vero E6 [4] = assay: as above
HepG2 [5] = assay: as above
Caco-2 [6] = assay: relative viability EC50 (midpoint between 100% and the lowest measured viability); higher = less toxic
Calu-3 [7] = assay: as above
U2OS [8] = assay: as above
Vero E6 [9] = assay: as above
HepG2 [10] = assay: as above
Caco-2 [11] = assay: drug sensitivity score (DSS) for viability; higher = more toxic; extreme values may be limits of the assay
Calu-3 [12] = assay: as above
U2OS [13] = assay: as above
Vero E6 [14] = assay: as above
HepG2 [15] = assay: as above

Compound	cell viability (Caco-2 [1]; 1 nM) [%]	cell viability (Caco-2 [1]; 10 nM) [%]	cell viability (Caco-2 [1]; 100 nM) [%]	cell viability (Caco-2 [1]; 1000 nM) [%]	cell viability (Caco-2 [1]; 10000 nM) [%]	cell viability (Calu-3 [2]; 1 nM) [%]	cell viability (Calu-3 [2]; 10 nM) [%]	cell viability (Calu-3 [2]; 100 nM) [%]	cell viability (Calu-3 [2]; 1000 nM) [%]	cell viability (Calu-3 [2]; 10000 nM) [%]	cell viability (U2OS [3]; 1 nM) [%]	cell viability (U2OS [3]; 10 nM) [%]	cell viability (U2OS [3]; 100 nM) [%]	cell viability (U2OS [3]; 1000 nM) [%]	cell viability (U2OS [3]; 10000 nM) [%]	cell viability (Vero E6 [4]; 1 nM) [%]	cell viability (Vero E6 [4]; 10 nM) [%]	cell viability (Vero E6 [4]; 100 nM) [%]	cell viability (Vero E6 [4]; 1000 nM) [%]	cell viability (Vero E6 [4]; 10000 nM) [%]	cell viability (HepG2 [5]; 1 nM) [%]	cell viability (HepG2 [5]; 10 nM) [%]	cell viability (HepG2 [5]; 100 nM) [%]	cell viability (HepG2 [5]; 1000 nM) [%]	cell viability (HepG2 [5]; 10000 nM) [%]	relative viability EC50 (Caco-2 [6]) [µM]	relative viability EC50 (Calu-3 [7]) [µM]	relative viability EC50 (U2OS [8]) [µM]	relative viability EC50 (Vero E6 [9]) [µM]	relative viability EC50 (HepG2 [10]) [µM]	drug sensitivity score (Caco-2 [11])	drug sensitivity score (Calu-3 [12])	drug sensitivity score (U2OS [13])	drug sensitivity score (Vero E6 [14])	drug sensitivity score (HepG2 [15])
CN1CCOC(c2ccccc2)c2ccccc2C1 (stereo not given) [nefopam]	86.6	102	95.1	99.5	91.9	105	108	96.7	91	101	104	99.3	105	100	98.7	95.9	103	98.8	102	95.1	95.8	104	96.3	101	106	> 10	> 10	> 10	> 10	> 10	0	0	0	0	0
CCN1CCC[C@H]1CNC(=O)c1c(OC)ccc(Br)c1OC [remoxipride]	99.9	104	88.7	99.1	92.7	96.3	113	99.7	94.3	79.9	101	103	98	105	95.7	96.2	100	94.3	91.4	91.7	111	92	101	96.5	94.1	> 10	> 10	> 10	> 10	> 10	0	1.3	0	0	0
O[C@@H]1[C@H](O)[C@@H](CCl)O[C@H]1n1cnc2c(NC3CC4CCC3C4)ncnc21 (mixture of isomers) [5'-chloro-5'-deoxy-ENBA-(+/-)]	98.8	99.6	99.2	97.2	86.1	99.1	98	93.3	94.8	90.2	104	100	99.3	104	97.6	96.7	97.2	94.3	91.9	91.5	96	99.6	96.2	99.5	85.4	> 10	> 10	> 10	> 10	> 10	0.4	0	0	0	0.2
CCCCNc1ncc(-c2ccc(CN3CCOCC3)cn2)c(N[C@H]2CC[C@H](O)CC2)n1 [UNC2250]	97.1	103	105	108	103	102	102	94.7	108	98.9	97.9	98.8	99.9	100	94.8	101	99.6	94.5	91.9	99.1	108	102	109	97.7	100	> 10	> 10	> 10	> 10	> 10	0	0	0	0	0
COC(=O)c1csc(C(=O)c2c[nH]c3ccccc23)n1 [ITE]	96.1	105	101	108	94.2	105	101	103	105	97.5	101	104	97.1	102	96.3	95	96.1	92.1	98.6	97.4	104	112	92.8	84.8	85.5	> 10	> 10	> 10	> 10	> 10	0	0	0	0	2
O=C(N[C@H]1CN2CCC1CC2)c1ccc(Cl)cc1	98.5	97.8	103	98.3	92.6	99.6	88.7	99.6	99.8	95.6	102	97.4	99.9	95.7	101	96.7	94.7	95.4	92.7	92.5	97.2	92.2	93.7	102	94.3	> 10	> 10	> 10	> 10	> 10	0	0	0	0	0
O=C[C@H](O)[C@@H](O)[C@H](O)CO [xylose]	94	94.3	94.2	90.4	92.7	104	93	98.4	97.9	85.4	95.1	95.3	94.5	96.4	96.3	96.7	96.1	99.4	94.3	92.6	106	101	101	98	96.8	> 10	> 10	> 10	> 10	> 10	0	0.3	0	0	0
CN[C@@H](C)C(=O)N[C@H](C(=O)N1CCC[C@H]1C(=O)Nc1snnc1-c1ccccc1)C1CCCCC1 [GDC-0152]	98.4	104	98.9	102	92.2	104	106	97.4	87.9	84.9	98.1	109	95.7	100	94.3	97	98.9	102	103	106	105	105	99.6	97.4	96	> 10	> 10	> 10	> 10	> 10	0	1.1	0	0	0
CCn1nc(C(=O)O)c(=O)c2cc3c(cc21)OCO3 [cinoxacin]	99.3	100	100	106	98.3	99.3	98.6	89.4	93.9	98.7	95.1	97.3	94.2	98.5	99.5	91.4	102	92.1	89.4	102	100	86.1	110	85.1	103	> 10	> 10	> 10	> 10	> 10	0	0	0	0	0
Nc1cc(Cl)c(N=C2NCCN2)c(Cl)c1 [apraclonidine]	104	92.7	110	111	96.6	93.6	100	106	106	98.2	96.4	101	94.8	101	102	108	89.1	101	95.2	98.6	96.5	96.7	105	92.3	96.5	> 10	> 10	> 10	> 10	> 10	0	0	0	0	0
CCCN1CCC[C@@H]2Cc3n[nH]cc3C[C@H]21 [quinpirol-(-)]	102	93.7	99.8	99.1	106	98.2	95.9	98.5	93.1	95.9	92.5	98.7	94.9	101	102	96.8	93.1	97.6	93.6	107	93.6	102	103	99.3	97.2	> 10	> 10	> 10	> 10	> 10	0	0	0	0	0
CO/N=C(\C(=O)N[C@@H]1C(=O)N2C(C(=O)O)=CCS[C@H]12)c1csc(N)n1 [ceftizoxim]	89.5	100	92.1	103	95.7	97.2	93.6	103	105	93.4	97.7	99.2	94.5	98.8	98.7	102	99.2	95.2	95.6	105	97.5	96.1	107	103	103	> 10	> 10	> 10	> 10	> 10	0	0	0	0	0
CCCCCOc1c(OC)ccc2cc(C(=O)NCc3ccc4c(c3)OCO4)c(=O)[nH]c12 [JTE-907]	90.9	91.1	99.9	101	75.7	102	93.9	97.3	105	90.8	100	99.7	103	99.5	97.4	90.8	99.8	94.5	94.3	110	95	97.4	100	115	103	> 10	> 10	> 10	> 10	> 10	0.8	0	0	0	0
Cc1ccc(/C=C2/C(=O)C3(C)CCC2C3(C)C)cc1 (stereo not given) [3-(4-methylbenzylidene)camphor]	92.9	100	90	95.8	95.9	102	97.2	88.1	92.1	93.8	101	104	96.4	99.1	100	101	101	96.9	99.9	96.3	94.1	96	94.3	88.9	103	> 10	> 10	> 10	> 10	> 10	0	1.2	0	0	0
